target: human NAMPT (Homo sapiens (Human), UniProt P43490); assay: NMN fluorescence biochemical assay (human recombinant NAMPT enzyme assay)
Outline: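 NMN formed was detected by fluorescence (Ex/Em 355/460 nm) after acetophenone, KOH and formic acid derivatization. The cell-free reaction ran 60 min at ambient temperature with 6 nM human NAMPT, 150 μM nicotinamide, 20 μM PRPP, 2.5 mM ATP, pH 7.2 HEPES, and compound dose responses.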

Sequence of human NAMPT (P43490 whole entry): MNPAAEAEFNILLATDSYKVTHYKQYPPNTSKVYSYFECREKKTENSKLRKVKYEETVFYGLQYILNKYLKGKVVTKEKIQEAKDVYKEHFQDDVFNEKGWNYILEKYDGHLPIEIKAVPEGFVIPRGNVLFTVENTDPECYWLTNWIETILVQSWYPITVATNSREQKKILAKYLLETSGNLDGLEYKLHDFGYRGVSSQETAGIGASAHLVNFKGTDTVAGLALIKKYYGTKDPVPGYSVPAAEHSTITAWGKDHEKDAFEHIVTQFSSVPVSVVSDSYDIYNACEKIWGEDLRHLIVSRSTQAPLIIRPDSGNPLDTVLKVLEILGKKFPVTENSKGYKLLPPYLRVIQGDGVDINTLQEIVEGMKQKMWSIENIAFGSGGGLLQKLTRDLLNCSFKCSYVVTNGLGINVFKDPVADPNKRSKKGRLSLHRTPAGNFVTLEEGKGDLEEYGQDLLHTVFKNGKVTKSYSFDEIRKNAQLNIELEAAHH

| AC1.4 Human | EC50 | SMILES |
| --- | --- | --- |
| 0.68 µM | 6.21 µM | O=C(Nc1ccc(CN2CCOCC2=O)cc1)OCc1ccc(Cl)cc1 [Compound 86, (4-chlorophenyl)methyl N-{4-[(3-oxomorpholin-4-yl)methyl]phenyl}carbamate] |
| 0.68 µM | 1.75 µM | CC(C)C(=O)N1CCC(Cc2ccc(NC(=O)OCc3ccc(Cl)cc3)cc2)CC1 [Compound 87, 4-chlorobenzyl (4-((1-isobutyrylpiperidin-4-yl)methyl)phenyl)carbamate] |
| 0.69 µM | 37.4 µM | O=C(Nc1ccc(C2CCN(CC(F)(F)F)CC2)cc1)OCc1cnco1 [Compound 88, 1,3-oxazol-5-ylmethyl N-{4-[1-(2,2,2-trifluoroethyl)piperidin-4-yl]phenyl}] |
| 0.71 µM | 9.4 µM | C[C@@H](c1ccc(NC(=O)OCc2ccc(Cl)cc2)cc1)N(C)C(=O)N1CCC1 [Compound 89, 4-chlorobenzyl (S)-(4-(1-(N-methylazetidine-1-carboxamido)ethyl)phenyl)carbamate] |
| 0.72 µM | 7.32 µM | COc1cc(C(=O)N(C)Cc2ccc(NC(=O)OCc3ccc(Cl)cc3)cc2)n(C)n1 [Compound 90, (4-chlorophenyl)methyl N-(4-{[1-(5-methoxy-2-methylpyrazol-3-yl)-N-methylformamido]methyl}phenyl)carbamate] |
| 0.74 µM | 3.8 µM | CN(Cc1ccc(NC(=O)OCc2ccc(Cl)cc2)cc1)C(=O)c1ccn[nH]1 [Compound 91, (4-chlorophenyl)methyl N-{4-[(N-methyl-1-2H-pyrazol-3-ylformamido)methyl]phenyl}carbamate] |
| 0.75 µM | 3.22 µM | COc1cnn(C)c1C(=O)N[C@@H](C)c1ccc(NC(=O)OCc2ccc(Cl)cc2)cc1 [Compound 92, (4-chlorophenyl)methyl N-{4-[(1S)-1-[(4-methoxy-2-methylpyrazol-3-yl)formamido]ethyl]phenyl}carbamate] |
| 0.75 µM | 6.8 µM | CC(=O)N1CCC(OCc2ccc(NC(=O)OCc3ccc(Cl)cc3)cc2)CC1 [Compound 93, 4-chlorobenzyl (4-(((1-acetylpiperidin-4-yl)oxy)methyl)phenyl)carbamate] |
| 0.75 µM | 2.36 µM | CC(C)Cn1nccc1C(=O)N(C)Cc1ccc(NC(=O)OCc2ccc(Cl)cc2)cc1 [Compound 94, (4-chlorophenyl)methyl N-[4-({N-methyl-1-[2-(2-methylpropyl)pyrazol-3-yl]formamido}methyl)phenyl]carbamate] |
| 0.75 µM | 3.11 µM | COc1cc(C(=O)N[C@@H](C)c2ccc(NC(=O)OCc3ccc(Cl)cc3)cc2)n(C)n1 [Compound 95, (4-chlorophenyl)methyl N-(4-[(1S)-1-[(5-methoxy-2-methylpyrazol-3-yl)formamido]ethyl]phenyl}carbamate] |
| 0.75 µM | 3.47 µM | C[C@H](NC(=O)N1CCC1)c1ccc(NC(=O)OCc2ccc(Cl)cc2)cc1 [Compound 96] |
| 0.76 µM | 23.6 µM | C[C@H](NC(=O)C1CCC(F)(F)C1)c1ccc(NC(=O)OCc2cnco2)cc1 (stereo partly drawn) [Compound 97, 1,3-oxazol-5-ylmethyl N-{4-[(1S)-1-[(3,3-difluorocyclopentyl)formamido]ethyl]phenyl}carbamate] |
| 0.79 µM | 51.2 µM | O=C(Nc1ccc(Cc2ccncc2)cc1)OCc1cn[nH]c1 [Compound 99, (1H-pyrazol-4-yl)methyl (4-(pyridin-4-ylmethyl)phenyl)carbamate] |
| 0.81 µM | 1.22 µM | COc1ccc(C(=O)N[C@@H](C)c2ccc(NC(=O)OCc3ccc(Cl)cc3)cc2)cn1 [Compound 100, (4-chlorophenyl)methyl N-{4-[(1S)-1-[(6-methoxypyridin-3-yl)formamido]ethyl]phenyl}carbamate] |
| 0.82 µM | 4.14 µM | CCn1nccc1C(=O)N[C@@H](C)c1ccc(NC(=O)OCc2ccc(Cl)cc2)cc1 [Compound 101, (4-chlorophenyl)methyl N-{4-[(1S)-1-[(2-ethylpyrazol-3-yl)formamido]ethyl]phenyl}carbamate] |
| 0.82 µM | 1.89 µM | O=C(Nc1ccc(CC2CCN(C(=O)C3CCC3)CC2)cc1)OCc1ccc(Cl)cc1 [Compound 102, 4-chlorobenzyl (4-((1-(cyclobutanecarbonyl)piperidin-4-yl)methyl)phenyl)carbamate] |
| 0.83 µM | 4.31 µM | C[C@H](NC(=O)N1CCCC1)c1ccc(NC(=O)OCc2ccc(Cl)cc2)cc1 [Compound 103, 4-chlorobenzyl (S)-(4-(1-(pyrrolidine-1-carboxamido)ethyl)phenyl)carbamate] |
| 0.85 µM | 5.06 µM | Cc1ccc(C(=O)N(C)Cc2ccc(NC(=O)OCc3ccc(Cl)cc3)cc2)cn1 [Compound 104, (4-chlorophenyl)methyl N-(4-{[N-methyl-1-(6-methylpyridin-3-yl)formamido]methyl}phenyl)carbamate] |

| AC1.4 Human | EC50 | SMILES |
| --- | --- | --- |
| 0.85 µM | 1.94 µM | C[C@H](NC(=O)c1ccncc1)c1ccc(NC(=O)OCc2ccc(Cl)cc2)cc1 [Compound 105, (4-chlorophenyl)methyl N-{4-[(1S)-1-(pyridin-4-ylformamido)ethyl]phenyl}carbamate] |
| 0.86 µM | 26.4 µM | O=C(Nc1ccc(Cc2ccncc2)cc1)OCc1ccc(CO)cc1 [Compound 106, 4-(hydroxymethyl)benzyl (4-(pyridin-4-ylmethyl)phenyl)carbamate] |
| 0.89 µM | 10.8 µM | CS(=O)(=O)N1CCN(Cc2ccc(NC(=O)OCc3ccc(Cl)cc3)cc2)CC1 [Compound 107, (4-chlorophenyl)methyl N-{4-[(4-methanesulfonylpiperazin-1-yl)methyl]phenyl}carbamate] |
| 0.89 µM | 8.17 µM | Cc1nocc1C(=O)N(C)Cc1ccc(NC(=O)OCc2ccc(Cl)cc2)cc1 [Compound 108, (4-chlorophenyl)methyl N-(4-{[N-methyl-1-(3-methyl-1,2-oxazol-4-yl)formamido]methyl}phenyl)carbamate] |
| 0.90 µM | 4.71 µM | Cc1ncc(C(=O)NCc2ccc(NC(=O)OCc3ccc(Cl)cc3)cc2)cn1 [Compound 109, (4-chlorophenyl)methyl N-(4-{[(2-methylpyrimidin-5-yl)formamido]methyl}phenyl)carbamate] |
| 0.91 µM | 3.46 µM | COc1cc(C(=O)N[C@@H](C)c2ccc(NC(=O)OCc3ccc(Cl)cc3)cc2)cnc1C [Compound 110, (4-chlorophenyl)methyl N-{4-[(1S)-1-[(5-methoxy-6-methylpyridin-3-yl)formamido]ethyl]phenyl}carbamate] |
| 0.91 µM | 5.33 µM | O=C(Nc1ccc(CC(=O)N2CCCCC2)cc1)OCc1ccc(Cl)cc1 [Compound 111, (4-chlorophenyl)methyl N-{4-[2-oxo-2-(piperidin-1-yl)ethyl]phenyl}carbamate] |
| 0.93 µM | 5.53 µM | CN(Cc1ccc(NC(=O)OCc2ccc(Cl)cc2)cc1)C(=O)N1CCC1 [Compound 112, 4-chlorobenzyl (4-((N-methylazetidine-1-carboxamido)methyl)phenyl)carbamate] |
| 0.94 µM | 51 µM | O=C(Nc1ccc(C2CCN(CC(F)F)CC2)cc1)OCc1cnco1 [Compound 113, 1,3-oxazol-5-ylmethyl N-{4-[1-(2,2-difluoroethyl)piperidin-4-yl]phenyl}carbamate] |
| 0.94 µM | 19.7 µM | Cc1ccc(Cc2ccc(NC(=O)OCc3cncs3)cc2)cn1 [Compound 114, thiazol-5-ylmethyl (4-((6-methylpyridin-3-yl)methyl)phenyl)carbamate] |
| 0.94 µM | 3.13 µM | CC(=O)N1CCC(Cc2ccc(NC(=O)OCc3ccncc3)cc2)CC1 [Compound 115, pyridin-4-ylmethyl (4-((1-acetylpiperidin-4-yl)methyl)phenyl)carbamate] |
| 0.95 µM | 6.77 µM | CC1(O)CCN(C(=O)Cc2ccc(NC(=O)OCc3ccc(Cl)cc3)cc2)CC1 [Compound 116, (4-chlorophenyl)methyl N-{4-[2-(4-hydroxy-4-methylpiperidin-1-yl)-2-oxoethyl]phenyl}carbamate] |
| 0.95 µM | 8.14 µM | C[C@H](NC(=O)C1CCOCC1)c1ccc(NC(=O)OCc2ccc(Cl)cc2)cc1 [Compound 117, 4-chlorobenzyl (S)-(4-(1-(tetrahydro-2H-pyran-4-carboxamido)ethyl)phenyl)carbamate] |
| 0.95 µM | 3.13 µM | C[C@H](NC(=O)c1cccnc1)c1ccc(NC(=O)OCc2ccc(Cl)cc2)cc1 [Compound 118, (4-chlorophenyl)methyl N-{4-[(1S)-1-(pyridin-3-ylformamido)ethyl]phenyl}carbamate] |
| 0.95 µM | 21.7 µM | O=C(Nc1ccc(CC(=O)N2CCC(O)CC2)cc1)OCc1ccc(Cl)cc1 [Compound 119, (4-chlorophenyl)methyl N-{4-[2-(4-hydroxypiperidin-1-yl)-2-oxoethyl]phenyl}carbamate] |
| 0.96 µM | 44.9 µM | COC(=O)N1CCC(CCc2ccc(NC(=O)OCc3cnco3)cc2)CC1 [Compound 120, methyl 4-(4-(((oxazol-5-ylmethoxy)carbonyl)amino)phenethyl)piperidine-1-carboxylate] |
| 0.97 µM | 6.46 µM | C[C@H](NC(=O)C1COC1)c1ccc(NC(=O)OCc2ccc(Cl)cc2)cc1 [Compound 122, 4-chlorobenzyl (S)-(4-(1-(oxetane-3-carboxamido)ethyl)phenyl)carbamate] |

| SMILES | AC1.4 Human | EC50 |
| --- | --- | --- |
| COC(=O)N1CCC(Cc2ccc(NC(=O)OCc3ccc(Cl)cc3)cc2)CC1 [Compound 98, methyl 4-(4-((((4-chlorobenzyl)oxy)carbonyl)amino)benzyl)piperidine-1-carboxylate] | 0.78 µM | 1.49 µM |

Reference: patent US20240279215A1 (Cytokinetics, Incorporated, priority 2022, published 2024)
